# Laboratory results reported in patent publication US6680335B2, “Methods of modulating protein tyrosine kinase function with substituted indolinone compounds” (Sugen, Inc., priority 1998, dated 2004).
# Key:
# pyk-2 protein kinase = molecular target: T1, pyk-2 protein kinase (Homo sapiens, UniProt Q14289); assay: Assay measuring PYK-2 protein kinase activity (phosphorylation of a biotinylated peptide); type: biochemical; conditions: pyk-2 from transformed yeast lysate, 5 μM ATP; compound at 100 μM
# T1 construct: made in house; host or cells: Schizosaccharomyces pombe strain SP200, pRSP expression plasmids
# T1 sequence (Q14289 whole entry): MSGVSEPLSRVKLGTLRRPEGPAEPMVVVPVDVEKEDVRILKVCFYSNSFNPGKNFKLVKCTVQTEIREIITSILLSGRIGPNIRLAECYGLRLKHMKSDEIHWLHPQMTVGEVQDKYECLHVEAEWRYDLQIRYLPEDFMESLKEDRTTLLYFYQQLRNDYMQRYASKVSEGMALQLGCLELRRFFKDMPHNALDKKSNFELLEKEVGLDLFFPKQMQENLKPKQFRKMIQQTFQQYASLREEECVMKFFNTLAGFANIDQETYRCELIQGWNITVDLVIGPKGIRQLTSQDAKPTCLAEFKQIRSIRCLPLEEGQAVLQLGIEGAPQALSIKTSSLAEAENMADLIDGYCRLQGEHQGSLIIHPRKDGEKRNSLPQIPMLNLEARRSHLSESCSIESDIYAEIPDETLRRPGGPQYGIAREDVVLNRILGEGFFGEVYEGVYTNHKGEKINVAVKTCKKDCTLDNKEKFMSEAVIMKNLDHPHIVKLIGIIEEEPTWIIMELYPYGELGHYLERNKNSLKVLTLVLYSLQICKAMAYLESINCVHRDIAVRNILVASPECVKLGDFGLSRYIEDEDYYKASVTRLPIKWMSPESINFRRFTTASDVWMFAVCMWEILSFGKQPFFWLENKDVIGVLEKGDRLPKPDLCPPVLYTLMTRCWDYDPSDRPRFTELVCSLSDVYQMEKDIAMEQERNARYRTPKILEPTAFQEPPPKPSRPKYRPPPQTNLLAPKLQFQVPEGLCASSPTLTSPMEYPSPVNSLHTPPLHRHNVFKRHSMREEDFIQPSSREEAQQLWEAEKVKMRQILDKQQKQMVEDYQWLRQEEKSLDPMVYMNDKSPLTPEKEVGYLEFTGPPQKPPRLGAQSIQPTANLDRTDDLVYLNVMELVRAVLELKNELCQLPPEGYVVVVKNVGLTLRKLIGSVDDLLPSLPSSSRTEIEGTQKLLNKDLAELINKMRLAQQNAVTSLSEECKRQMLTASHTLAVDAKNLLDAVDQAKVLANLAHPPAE
# Procedure: This assay is used to determine pyk-2 protein kinase activity measuring phosphorylation of a biotinylated peptide as the readout.
# a. Yeast transformed with pyk-2.
# b. Cell lysates: Yeast cells expressing pyk-2 are pelleted, washed once with water, re-pelleted and stored at −80° C. until use.
# (§1) c. N-terminus biotinylated […] is prepared by standard procedures well known to those skilled in the art.
# (§2) h. […] S. Pombe strain SP200 (h-s leul.32 ura4 ade21O) was grown as described and transformations were pRSP expression plasmids were done by the lithium acetate method (Superti-Furga, supra). Cells were grown in the presence of 1 μM thiamine to repress expression from the nmtl promoter or in the absence of thiamine to induce expression.
# a. Preparation of pyk-2 coated ELISA plate.
# 1. Coat ELISA plate with 0.5 μg/well anti-pyk-2 mab in 100 μL of pH 9.6 sodium carbonate buffer at 4° C. overnight.
# (§3) 2. Wash wells once with PBS.
# (§4) 3. Block plate with 0.15 mL 5% milk in PBS for 30 min. at room temperature.
# (§5) 4. Wash plate 5× with PBS.
# 5. Add 10 μg/well of pyk-2 transformed yeast lysates diluted in Lysis Buffer (0.1 mL total volume per well). (Amount of lysate may vary between hatches.) Shake plate for 20 minutes at room temperature.
# (§6) b. Preparation of phosphotyrosine antibody-coated ELISA plate.
# (§7) 1. 4G10 plate: coat 0.5 μg/well 4G10 in 100 μL PBS overnight at 4° C. and block with 150 μL of 5% milk in PBS for 30 minutes at room temperature.
# (§8) c. Kinase assay procedure.
# (§9) 1. Remove unbound proteins from steps 1-7, above, and wash plates 5× with PBS.
# 2. Add 0.08 mL Kinase Reaction Mixture per well (containing […] of 10×Kinase Buffer and 10 pM (final concentration) biotin-[…] per well diluted in water.
# (§10) 3. Add 10 μL of compound diluted in water containing 10% DMSO and pre-incubate for 15 minutes at room temperature.
# (§11) 4. Start kinase reaction by adding 10 μL/well of 0.05 mM ATP in water (5 μM ATP final).
# (§12) 5. Shake ELISA plate for 15 min. at room temperature.
# (§13) 6. Stop kinase reaction by adding 10 μL of 0.5 M EDTA per well.
# (§14) 7. Transfer 90 μL supernatant to a blocked 4G10 coated ELISA plate from section B, above.
# (§15) 8. Incubate for 30 min. while shaking at room temperature.
# (§16) 9. Wash plate 5× with TBST.
# (§17) 10. Incubate with Vectastain ELITE ABC reagent (100 μL/well) for 30 min. at room temperature.
# (§18) 11. Wash the wells 5× with TBST.
# (§19) 12. Develop with Turbo TMB.
# (§20) The IC50 values were measured for several of the compounds of the invention.
# src protein kinase = molecular target: T2, src protein kinase (Gallus gallus, UniProt P00523); assay: Assay measuring SRC protein kinase activity (phosphorylation of a biotinylated peptide); type: biochemical; conditions: src from transformed yeast lysate, 5 μM ATP; compound at 100 μM
# T2 construct: made in house; host or cells: Schizosaccharomyces pombe strain SP200, pRSP expression plasmids
# Procedure: This assay is used to determine src protein kinase activity measuring phosphorylation of a biotinylated peptide as the readout.
# a. Yeast transformed with src.
# b. Cell lysates: Yeast cells expressing src are pelleted, washed once with water, re-pelleted and stored at −80° C. until use.
# as §1, §2
# a. Preparation of src coated ELISA plate.
# 1. Coat ELISA plate with 0.5 μg/well anti-src mab in 100 μL of pH 9.6 sodium carbonate buffer at 4° C. overnight.
# as §3, §4, §5
# 5. Add 10 μg/well of src transformed yeast lysates diluted in Lysis Buffer (0.1 mL total volume per well). (Amount of lysate may vary between hatches.) Shake plate for 20 minutes at room temperature.
# as §6, §7, §8, §9
# 2. Add 0.08 mL Kinase Reaction Mixture per well (containing 10 μL of 10×Kinase Buffer and 10 μM (final concentration) biotin-[…] per well diluted in water.
# as §10, §11, §12, §13, §14, §15, §16, §17, §18, §19, §20
# FLK-1 receptor = molecular target: T3, FLK-1 receptor (Mus musculus, UniProt P35918); assay: ELISA assay measuring the kinase activity of the FLK-1 receptor in cells engineered to express FLK-1; type: cell-based; conditions: FLK-1 expressing NIH3T3 C7#3 cells, VEGF stimulated; for inhibition at 100 µM: compound at 100 μM
# T3 construct: expressed in transfected cells; host or cells: NIH3T3 C7#3 cells
# T3 sequence (P35918 20-1345): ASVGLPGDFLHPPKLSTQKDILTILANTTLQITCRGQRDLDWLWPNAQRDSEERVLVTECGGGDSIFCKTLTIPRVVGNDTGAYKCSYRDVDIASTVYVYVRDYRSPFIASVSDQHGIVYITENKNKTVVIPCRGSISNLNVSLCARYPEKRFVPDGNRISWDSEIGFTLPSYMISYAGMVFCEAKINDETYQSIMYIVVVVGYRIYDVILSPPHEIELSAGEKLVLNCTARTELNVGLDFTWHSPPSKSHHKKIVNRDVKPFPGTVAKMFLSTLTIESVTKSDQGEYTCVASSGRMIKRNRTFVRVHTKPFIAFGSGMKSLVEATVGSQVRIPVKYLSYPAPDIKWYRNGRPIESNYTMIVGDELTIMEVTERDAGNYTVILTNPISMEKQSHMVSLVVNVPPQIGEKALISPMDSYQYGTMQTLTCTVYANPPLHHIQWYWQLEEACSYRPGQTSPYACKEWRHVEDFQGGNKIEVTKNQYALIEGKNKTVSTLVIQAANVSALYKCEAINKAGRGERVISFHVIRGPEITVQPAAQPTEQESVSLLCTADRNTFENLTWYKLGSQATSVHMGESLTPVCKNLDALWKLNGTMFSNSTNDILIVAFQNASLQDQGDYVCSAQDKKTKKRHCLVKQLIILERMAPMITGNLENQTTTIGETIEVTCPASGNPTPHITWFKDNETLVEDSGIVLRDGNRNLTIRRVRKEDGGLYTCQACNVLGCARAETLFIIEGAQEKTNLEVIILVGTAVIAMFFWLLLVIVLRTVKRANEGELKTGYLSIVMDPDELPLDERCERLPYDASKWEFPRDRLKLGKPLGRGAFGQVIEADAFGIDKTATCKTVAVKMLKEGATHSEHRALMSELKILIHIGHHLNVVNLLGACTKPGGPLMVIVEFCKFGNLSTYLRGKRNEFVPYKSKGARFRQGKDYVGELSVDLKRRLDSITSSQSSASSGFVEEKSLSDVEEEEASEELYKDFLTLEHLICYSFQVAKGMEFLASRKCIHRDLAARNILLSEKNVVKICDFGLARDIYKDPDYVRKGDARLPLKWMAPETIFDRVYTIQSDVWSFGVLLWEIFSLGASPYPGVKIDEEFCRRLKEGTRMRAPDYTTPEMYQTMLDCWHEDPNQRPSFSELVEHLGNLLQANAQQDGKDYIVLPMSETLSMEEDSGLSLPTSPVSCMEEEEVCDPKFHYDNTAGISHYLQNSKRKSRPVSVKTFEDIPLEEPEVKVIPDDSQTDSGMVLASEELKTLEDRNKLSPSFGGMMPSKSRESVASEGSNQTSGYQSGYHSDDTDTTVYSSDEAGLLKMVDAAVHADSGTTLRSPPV
# Procedure: An ELISA assay was conducted to measure the kinase activity of the FLK-1 receptor and more specifically, the inhibition or activation of TK activity on the FLK-1 receptor. Specifically, the following assay was conducted to measure kinase activity of the FLK-1 receptor in cells genetically engineered to express FLK-1.
# (11) NIH3T3 C7#3 Cells (FLK-1 expressing cells);
# The following protocol was used for conducting the assay:
# 1. Coat Corning 96-well elisa plates with 1.0 μg per well Cappel Anti-rabbit IgG antibody in 0.1 M Na2CO3 pH 9.6. Bring final volume to 150 μL per well. Coat plates overnight at 4° C. Plates can be kept up to two weeks when stored at 4° C.
# 2. Grow cells in Growth media (DMEM, supplemental with 2.0 mM L-Glutamine, 10% FBS) in suitable culture dishes until confluent at 37° C., 5% CO2.
# 3. Harvest cells by trypsinization and seed in Corning 25850 polystyrene 96-well roundbottom cell plates, 25.000 cells/well in 200 μL of growth media.
# 4. Grow cells at least one day at 37° C., 5% CO2.
# 5. Wash cells with D-PBS 1×.
# 6. Add 200 μL/well of starvation media (DMEM, 2.0 mM 1-Glutamine, 0.1% FBS). Incubate overnight at 37° C., 5% CO2.
# 7. Dilute Compounds 1:20 in polypropylene 96 well plates using starvation media. Dilute dimethylsulfoxide 1:20 for use in control wells.
# 8. Remove starvation media from 96 well cell culture plates and add 162 μL of fresh starvation media to each well.
# 9. Add 18 μL of 1:20 diluted Compound dilution (from step 7) to each well plus the 1:20 dimethylsulfoxide dilution to the control wells (+/−VEGF), for a final dilution of 1:200 after cell stimulation. Final dimethylsulfoxide is 0.5%. Incubate the plate at 37° C., 5% CO2 for two hours.
# 10. Remove unbound antibody from ELISA plates by inverting plate to remove liquid. Wash 3 times with TBSW+0.5% ethanolamine, pH 7.0. Pat the plate on a paper towel to remove excess liquid and bubbles.
# 11. Block plates with TBSW+0.5% Ethanolamine, pH 7.0, 150 μL per well. Incubate plate thirty minutes while shaking on a microliter plate shaker.
# 12. Wash plate 3 times as described in step 10.
# 13. […] Bring final volume to 150 μL/well with TBSW+0.5% ethanolamine pH 7.0. Incubate plate for thirty minutes while shaking.
# 14. Add 180 μL starvation medium to the cells and stimulate cells with 20 μL/well 10.0 mM sodium ortho vanadate and 500 ng/mL VEGF (resulting in a final concentration of 1.0 mM sodium ortho vanadate and 50 ng/mL VEGF per well) for eight minutes at 37° C., 5% CO2. Negative control wells receive only starvation medium.
# 15. After eight minutes, media should be removed from the cells and washed one time with 200 μL/well PBS.
# 16. Lyse cells in 150 μL/well HNTG while shaking at room temperature for five minutes. HNTG formulation includes sodium ortho vanadate, sodium pyro phosphate and EDTA.
# 17. Wash ELISA plate three times as described in step 10.
# 18. Transfer cell lysates from the cell plate to ELISA plate and incubate while shaking for two hours. To transfer cell lysate pipette up and down while scrapping the wells.
# 19. Wash plate three times as described in step 10.
# 20. Incubate ELISA plate with 0.02 μg/well UB40 in TBSW+05% ethanolamine. Bring final volume to 150 μL/well. Incubate while shaking for 30 minutes.
# 21. Wash plate three times as described in step 10.
# 22. Incubate ELISA plate with 1:10,000 diluted EIA grade goat anti-mouse IgG conjugated horseradish peroxidase in TBSW+0.5% ethanolamine, pH 7.0. Bring final volume to 150 μL/well. Incubate while shaking for thirty minutes.
# 23. Wash plate as described in step 10.
# 24. Add 100 μL of ABTS/H2O2 solution to well. Incubate ten minutes while shaking.
# 25. Add 100 μL of 0.2 M HCl for 0.1 M HCl final to stop the color development reaction. Shake 1 minute at room temperature. Remove bubbles with slow stream of air and read the ELISA plate in an ELISA plate reader at 410 nm.
# as §20
Compound,inhibition at 100 µM (pyk-2 protein kinase) [%],inhibition at 100 µM (src protein kinase) [%],inhibition at 100 µM (FLK-1 receptor) [%],IC50 (FLK-1 receptor; cells without % or + sign) [µM]
"Cc1c(C=C2C(=O)Nc3ccc(S(=O)(=O)N(C)C)cc32)[nH]c2ccccc12 (mixture of isomers) [IN-004, 3-(3-Methyl-1H-indol-2-ylmethylene)-2-oxo-2,3-dihydro-1H-indole-5-sulfonic acid dimethylamide]",44.4,-4.6,7,
"CNS(=O)(=O)c1ccc2c(c1)C(=Cc1[nH]c3ccccc3c1C)C(=O)N2 [IN-003, 3-(3-Methyl-1H-indol-2-ylmethylene)-2-oxo-2,3-dihydro-1H-indole-5-sulfonic acid methylamide]",67.5,,11,
"O=C1Nc2ccc(Br)cc2C1=Cc1cc2ccccc2[nH]1 [IN-014, 5-Bromo-3-(1H-indol-2-ylmethylene)-1,3-dihydro-indol-2-one]",-14,-2.4,10,
"Cc1cccc2c1C(=Cc1cc3ccccc3[nH]1)C(=O)N2 [IN-015, 3-(1H-indol-2-ylmethylene)-4-methyl-1,3-dihydro-indol-2-one]",3.9,16,26,
"O=C1Nc2ccc(/N=C/c3cc4ccccc4[nH]3)cc2/C1=C/c1cc2ccccc2[nH]1 [IN-020, 3-(1H-indol-2-ylmethylene)-5-[(1H-indol-2-ylmethylene)-amino]-1,3-dihydro-indol-2-one]",64.3,7.62,,> 100
